Assay results as given in publication PMC7217877, “N-AS-triggered SPMs are direct regulators of microglia in a model of Alzheimer’s disease” (Nature Communications, 2020).
Residue numbers refer to the chain shown, from its start. Values joined by “and” are separate entries in the source; they are usually repeats but may differ in a detail not shown here. Equal values may be shown once.

Experiments:
COX2 S565A = molecular target: T1, COX2 S565A (Homo sapiens, UniProt P35354, S565A); test: filter binding assay of [14C] N-AS to COX2; conditions: replicates
T1 construct: His (N); made in house
T1 sequence (P35354 18-604 S565A): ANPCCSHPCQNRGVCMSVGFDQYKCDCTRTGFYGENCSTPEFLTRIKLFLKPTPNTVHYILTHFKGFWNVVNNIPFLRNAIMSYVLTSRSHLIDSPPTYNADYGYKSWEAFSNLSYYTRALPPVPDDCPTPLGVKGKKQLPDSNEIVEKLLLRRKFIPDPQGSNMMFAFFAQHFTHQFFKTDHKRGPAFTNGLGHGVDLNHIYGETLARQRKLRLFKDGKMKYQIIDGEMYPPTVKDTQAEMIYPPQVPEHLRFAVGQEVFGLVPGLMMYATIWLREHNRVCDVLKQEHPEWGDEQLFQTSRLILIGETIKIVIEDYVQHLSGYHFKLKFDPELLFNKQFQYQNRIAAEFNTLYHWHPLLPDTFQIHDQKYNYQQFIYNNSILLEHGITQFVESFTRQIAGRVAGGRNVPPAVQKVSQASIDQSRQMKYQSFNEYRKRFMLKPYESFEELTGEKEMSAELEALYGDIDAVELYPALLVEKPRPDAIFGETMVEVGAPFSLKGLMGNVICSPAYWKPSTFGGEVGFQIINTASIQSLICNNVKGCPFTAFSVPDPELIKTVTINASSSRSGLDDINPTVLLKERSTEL
Text: (§1) Single point mutations in SphK1 (R56A, R57A, R24A, R185A, D178A, and F192A) and COX2 (S565A, N181A, T564A, and S567A) were generated using the In-Fusion Cloning Kits (Clontech) and ORF cDNA expression plasmids of human SphK1 and COX2 gene (Sino Biological Inc, HG15679-NH and HG12036-NH), according to the manufacturer’s instructions. The forward and reverse primers described in Supplementary Table 4. The SphK1 WT, SphK1 mutants, COX2 WT, and COX2 mutant plasmids were transformed in the One shot TOP 10 competent cell (Invitrogen). The bacteria were grown in Luria-Bertani (LB, Invitrogen) plates supplemented with 50 μg ml^−1 kanamycin (Sigma-Aldrich) at 37 °C. The bacterial cell pellets were resuspended in lysis buffer containing 20 mM sodium phosphate (GE Healthcare), 500 mM NaCl (GE Healthcare), 20 mM imidazole (pH 7.4) (GE Healthcare), 0.2 mg ml^−1 lysozyme (Sigma-Aldrich), 20 μg ml^−1 DNase I (Roche), 1 mM MgCl2 (Sigma-Aldrich), and 1 mM PMSF (Sigma-Aldrich) before being lysed by sonication and clarified by centrifugation at 15,493×g for 10 min. Proteins were purified from the soluble fraction using His-Spin Trap columns (GE Healthcare) and the binding and acetylation assays were performed.
(§2) Briefly, SphK1 WT and mutant enzymes (1 mU) were resuspended in 100 μl reaction buffer (20 mM HEPES; pH 7.4, 50 mM NaCl, 10 mM MgCl2, 1 mM EGTA, 0.02% Triton-X100, and 100 μM sphingosine, all from Sigma-Aldrich). […] Briefly, COX2 WT and mutant enzymes (1 mU) were resuspended in 100 μl reaction buffer (20 mM HEPES; pH 7.4, 50 mM NaCl, 10 mM MgCl2, 1 mM EGTA, and 0.02% Triton-X100, all from Sigma-Aldrich). Reactions were initiated by adding [^14C] N-AS (1–200 μM (0.1–20 μCi), ARC UK Ltd, ARC-1024) and incubated at 37 °C for 1 h. The reactions were terminated by adding 100 μl of ice-cold reaction buffer containing 5 mM cold N-AS and immediately filtered through P30 filtermat (Perkin-Elmer), followed by five washes.
(§3) The binding velocity was plotted and the Kcat and KM values were calculated from the Michaelis-Menten analysis using the Sigma-plot program (ver 10.0, Systat software Inc.).

COX2 T564A = molecular target: T2, COX2 T564A (Homo sapiens, UniProt P35354, T564A); test: filter binding assay of [14C] N-AS to COX2; conditions: replicates
T2 construct: His (N); made in house
T2 sequence (P35354 18-604 T564A): T1 sequence (P35354 18-604 S565A) with T547A, A548S
Text: as §1, §2, §3

Question: What does the source list for `CCCCCCCCCCCCC/C=C/[C@@H](O)[C@H](CO)NC(C)=O` [N-AS, N-((2S,3R,E)-1,3-Dihydroxyoctadec-4-en-2-yl)acetamide]?
Answer: binding velocity (Vbinding) (COX2 S565A; 1 uM): 0.294 nM/min and 0.145 nM/min and 0.375 nM/min; binding velocity (Vbinding) (COX2 S565A; 5 uM): 4.092 nM/min and 3.850 nM/min and 4.567 nM/min; binding velocity (Vbinding) (COX2 S565A; 10 uM): 6.171 nM/min and 6.000 nM/min and 6.819 nM/min; binding velocity (Vbinding) (COX2 S565A; 20 uM): 11.138 nM/min and 12.964 nM/min and 8.904 nM/min; binding velocity (Vbinding) (COX2 S565A; 100 uM): 19.545 nM/min and 19.934 nM/min and 20.173 nM/min; binding velocity (Vbinding) (COX2 S565A; 200 uM): 28.985 nM/min and 29.725 nM/min and 29.810 nM/min; binding velocity (Vbinding) (COX2 T564A; 1 uM): 0.251 nM/min and 0.379 nM/min and 0.622 nM/min; binding velocity (Vbinding) (COX2 T564A; 5 uM): 7.230 nM/min and 6.808 nM/min and 11.168 nM/min; binding velocity (Vbinding) (COX2 T564A; 10 uM): 7.378 nM/min and 8.069 nM/min and 9.338 nM/min; binding velocity (Vbinding) (COX2 T564A; 20 uM): 12.382 nM/min and 16.697 nM/min and 16.993 nM/min; binding velocity (Vbinding) (COX2 T564A; 100 uM): 28.376 nM/min and 29.582 nM/min and 24.951 nM/min; binding velocity (Vbinding) (COX2 T564A; 200 uM): 37.587 nM/min and 41.759 nM/min and 47.017 nM/min
